Test results from PubChem BioAssay (NCI).
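The concentration for 50% growth inhibition is given as GI50. TGI is the concentration that stops growth completely.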

Tests used:
Assay in all cases: NCI anticancer screen, dose series, 384-well format
[1] = test system: SNB-19 CNS
[2] = test system: A549 NSCLC
[3] = test system: M14 melanoma
[4] = test system: HS 578T breast
[5] = test system: OVCAR-8 ovarian
[6] = test system: OVCAR-3 ovarian
[7] = test system: T-47D breast
[8] = test system: PC-3 prostate
[9] = test system: SF-268 CNS
[10] = test system: UACC-62 melanoma
[11] = test system: NCI-H226 lung
[12] = test system: ACHN renal
[13] = test system: SW-620 colon
[14] = test system: MCF7 breast
[15] = test system: MDA-MB-231 breast
[16] = test system: U251 glioblastoma
[17] = test system: HCT-116 colon
[18] = test system: MDA-MB-468 breast
[19] = test system: UACC-257 melanoma
[20] = test system: K-562 leukemia
[21] = test system: DU-145 prostate
[22] = test system: NCI-H322M lung
[23] = test system: EKVX NSCLC
[24] = test system: 786-0 renal
[25] = test system: MALME-3M melanoma
[26] = test system: NCI/ADR-RES ovarian
[27] = test system: IGROV1 ovarian
[28] = test system: CAKI-1 renal
[29] = test system: NCI-H460 NSCLC
[30] = test system: OVCAR-4 ovarian
[31] = test system: SK-OV-3 ovarian
[32] = test system: LOX IMVI melanoma
[33] = test system: HOP-92 NSCLC
[34] = test system: HOP-62 NSCLC
[35] = test system: SR leukemia
[36] = test system: RXF 393 renal
[37] = test system: NCI-H23 lung
[38] = test system: HL-60(TB) leukemia
[39] = test system: SN12C renal
[40] = test system: COLO 205 colon
[41] = test system: SNB-75 CNS
[42] = test system: SF-539 CNS
[43] = test system: RPMI-8226 leukemia
[44] = test system: HCT-15 colon
[45] = test system: SF-295 CNS
[46] = test system: HCC-2998 colon
[47] = test system: MDA-MB-435 melanoma
[48] = test system: HT29 colon
[49] = test system: SK-MEL-5 melanoma
[50] = test system: CCRF-CEM leukemia
[51] = test system: A498 renal
[52] = test system: NCI-H522 lung
[53] = test system: TK-10 renal
[54] = test system: MOLT-4 leukemia
[55] = test system: UO-31 renal
[56] = test system: SK-MEL-28 melanoma
[57] = test system: BT-549 breast
[58] = test system: KM12 colon

Cc1ccccc1C(C(=O)NC1CCCCC1)N(C(=O)CNc1ccc(C#N)cc1)c1cccc(F)c1 (stereo unspecified)
GI50 [1]: 3.16 µM
TGI [1]: 16.6 µM
GI50 [2]: 25 µM
TGI [2]: > 100 µM
GI50 [3]: 2.56 µM
TGI [3]: 13.1 µM
GI50 [4]: 3.36 µM
TGI [4]: 20.1 µM
GI50 [5]: 4.15 µM
TGI [5]: 58.3 µM
GI50 [6]: 3.58 µM
TGI [6]: 35.3 µM
GI50 [7]: 7.89 µM
TGI [7]: > 100 µM
GI50 [8]: 7.84 µM
TGI [8]: 56.1 µM
GI50 [9]: 7.32 µM
TGI [9]: 55.9 µM
GI50 [10]: 1.58 µM
TGI [10]: 4.91 µM
GI50 [11]: 4.84 µM
TGI [11]: 27.2 µM
GI50 [12]: 11.6 µM
TGI [12]: > 100 µM
GI50 [13]: 3.4 µM
TGI [13]: > 100 µM
GI50 [14]: 14.6 µM
TGI [14]: > 100 µM
GI50 [15]: 5.23 µM
TGI [15]: 29.4 µM
GI50 [16]: 15.7 µM
TGI [16]: > 100 µM
GI50 [17]: 4.46 µM
TGI [17]: 33.9 µM
GI50 [18]: 51.7 µM
TGI [18]: > 100 µM
GI50 [19]: 3.77 µM
TGI [19]: 18.5 µM
GI50 [20]: 3.25 µM
TGI [20]: > 100 µM
GI50 [21]: 12.6 µM
TGI [21]: > 100 µM
GI50 [22]: 13.4 µM
TGI [22]: > 100 µM
GI50 [23]: 11.6 µM
TGI [23]: > 100 µM
GI50 [24]: 3.83 µM
TGI [24]: 20.7 µM
GI50 [25]: 0.713 µM
TGI [25]: 2.59 µM
GI50 [26]: 46.9 µM
TGI [26]: > 100 µM
GI50 [27]: 8.13 µM
TGI [27]: 88.7 µM
GI50 [28]: 4.93 µM
TGI [28]: 22.7 µM
GI50 [29]: 3.86 µM
TGI [29]: > 100 µM
GI50 [30]: 5.82 µM
TGI [30]: 31.5 µM
GI50 [31]: 8.22 µM
TGI [31]: 40.4 µM
GI50 [32]: 24.7 µM
TGI [32]: > 100 µM
GI50 [33]: 3.45 µM
TGI [33]: 17 µM
GI50 [34]: 6.88 µM
TGI [34]: 45.3 µM
GI50 [35]: 1.77 µM
TGI [35]: 4.61 µM
GI50 [36]: 4.41 µM
TGI [36]: 24.7 µM
GI50 [37]: 4.65 µM
TGI [37]: 24.4 µM
GI50 [38]: 1.15 µM
TGI [38]: 3.91 µM
GI50 [39]: 4.43 µM
TGI [39]: 66.8 µM
GI50 [40]: 3.04 µM
TGI [40]: 20.7 µM
GI50 [41]: 2.61 µM
TGI [41]: 16.2 µM
GI50 [42]: 5.6 µM
TGI [42]: 21.4 µM
GI50 [43]: 8.12 µM
TGI [43]: > 100 µM
GI50 [44]: 65.1 µM
TGI [44]: > 100 µM
GI50 [45]: 15 µM
TGI [45]: 47.1 µM
GI50 [46]: 1.48 µM
TGI [46]: 11.2 µM
GI50 [47]: 8.14 µM
TGI [47]: > 100 µM
GI50 [48]: 5.56 µM
TGI [48]: > 100 µM
GI50 [49]: 3.12 µM
TGI [49]: 17.8 µM
GI50 [50]: 98.4 µM
TGI [50]: > 100 µM
GI50 [51]: 6.17 µM
TGI [51]: 27.2 µM
GI50 [52]: 7.86 µM
TGI [52]: 67.7 µM
GI50 [53]: 19 µM
TGI [53]: > 100 µM
GI50 [54]: > 100 µM
TGI [54]: > 100 µM
GI50 [55]: 57.3 µM
TGI [55]: > 100 µM
GI50 [56]: 2.49 µM
TGI [56]: 11.6 µM
GI50 [57]: 7.62 µM
TGI [57]: 52.7 µM
GI50 [58]: 7.76 µM
TGI [58]: 89.6 µM
